Results on four compounds are retold here after US8044221B2, “Fluorine-containing boronic acid ester compound and method for producing the same” (Unimatec Co., Ltd., priority 2008, dated 2011).

Each structure is given as a SMILES string. Read-outs that look alike come from different tables or passages of the source.

A short description of the data set: Solubility in fluorine-containing organic solvent 1,3-bis(trifluoromethyl)benzene, visually measured. As to the method: The solubility of the fluorine-containing boronic acid ester compound [A] in 1,3-bis(trifluoromethyl)benzene, which was a fluorine-containing organic solvent used in Reference Example 3, described later, was 3.0 g/10 ml·solvent. Here, the solubility was determined in such a manner that the compound was added and stirred in 10 ml of said fluorine-containing organic solvent at 25° C., and then the maximum amount of addition sufficient to make the solution homogeneous was visually measured.
From this fact, a high solubility in a fluorine-containing organic solvent was confirmed.

Where [1] appears, read: 10 ml solvent, stirred at 25° C., maximum amount of addition giving a homogeneous solution, visually measured.

With `OB(O)c1ccc(B(O)O)cc1` [1,4-benzene diboronic acid], the “solubility in 1,3-bis(trifluoromethyl)benzene” value under setting [1] was “insoluble”.
Turning to `CN(C(=O)C(F)(OC(F)(F)C(F)(F)C(F)(F)F)C(F)(F)F)c1cc(B2OC(C)(C)C(C)(C)O2)cc(B2OC(C)(C)C(C)(C)O2)c1` (stereo not shown) [compound [A]], the “solubility in 1,3-bis(trifluoromethyl)benzene” value under setting [1] came to 3.0 g/10 ml·solvent.
For `CN(C(=O)C(F)(OC(F)(F)C(F)(OC(F)(F)C(F)(OC(F)(F)C(F)(F)C(F)(F)F)C(F)(F)F)C(F)(F)F)C(F)(F)F)c1cc(B2OC(C)(C)C(C)(C)O2)cc(B2OC(C)(C)C(C)(C)O2)c1` (stereo not shown) [compound [B]], for the setting “5 g added to 10 ml of 1,3-bis(trifluoromethyl)benzene”, the “solubility in a fluorine-containing organic solvent” value is recorded as “a homogeneous solution was formed”.
On to `CC1(C)OB(c2ccc(B3OC(C)(C)C(C)(C)O3)cc2)OC1(C)C` [1,4-bis(4,4,5,5-tetramethyl-1,3,2-dioxaborolan-2-yl)benzene], for which the “solubility in 1,3-bis(trifluoromethyl)benzene” value was determined as 0.17 g/10 ml·solvent.
